Source: patent US20210275545A1, “METHOD OF TREATING CANCER PREFERABLY CHARACTERIZED BY EXPRESSION OF A FUSION PROTEIN COMPRISING A MEMBER OF THE E-TWENTY-SIX FAMILY BY ADMINISTERING AN AGENT THAT INHIBITS THE SYNTHESIS AND/OR ACTIVITY OF CORTISOL” (Yeda Research and Development Co. Ltd., priority 2018, published 2021)

Tests used:
[1] = system: glucocorticoid response element (GRE); details: naïve cells, endogenous GR; 100 nM, 24 hours
Procedure: HEK-293T cells (1.2×10^4) were seeded in 48-well plates. […] In addition, cells were co-transfected with increasing amounts of a GR expression vector (A), a FLI1-encoding vector (B) or with a combination of both a FLI1 vector and a vector encoding GR, either wild type (C) or a mutant receptor (GRdim−, panel D). Luciferase activity was determined, in biological triplicates, 48 hours later and presented in bar plots. Cells that were pre-transfected with the reporter plasmid were used for normalization. *, p≤0.05; ***, p≤0.001. […] This was followed by cell lysis and determination of luciferase activity in biological triplicates.
Luciferase-reporter assays: Cells were co-transfected with a luciferase plasmid containing the consensus glucocorticoid response element (GRE) along with pGL3-Control (Promega, Madison, Wis.). Luciferase activity was determined using the dual-luciferase reporter assay system (Promega). Firefly luciferase luminescence values were normalized to Renilla luminescence.

GR and ERG [2] = target: T1, GR and ERG (Homo sapiens, UniProt P04150)
Procedure: (§1) (A) The scheme presents the full length Gaussia luciferase protein, along with either the amino-terminal segment (Gluc1), which was fused to an ETS family transcription factor, or the carboxyl terminal segment (Gluc2), which was fused to GR. Amino acid numbers are indicated. cDNAs encoding most members of the ETS family (16 members altogether) were cloned downstream to Gluc1. […] (B) HEK-293T cells (6×10^3) were seeded in 96-well plates. On the next day, cells were transfected with combinations of the Gluc1 plasmid, encoding a fused ETS family member, and the Gluc2 plasmid encoding a fused full-length GR. […] Cells were then lysed and luminescence was determined in biological triplicates. […] (D and E) HEK-293T cells were seeded in 100-mm dishes. Once they reached sub-maximal density (70%), cells were starved overnight for serum factors. […] Cell extracts were then processed for co-immunoprecipitation assays, in which the endogenous FLI1 or ERG protein was immunoprecipitated using a specific antibody, and immunoblotting was performed using an antibody against GR. EB, empty beads; C, solvent control. Images shown are representative of three biological replicates.
(A) HEK-293T cells (6×10^3) were seeded in 96-well plates. On the next day, the cells were transfected with combinations of the Gluc1 plasmid, encoding fused FLI1 or ERG, and the Gluc2 plasmid encoding GR. […] Cells were then lysed and luminescence was determined in each sample. Luminescence of vehicle-treated cells was used for normalization. […] (B) HEK-293T cells were seeded on coverslips in 6-well plates. […] Images were processed using the Zeiss ZEN2011 software. […] Bars, 20 μm.
Protein-fragment complementation assays (PCA): PCA was performed as previously described.

GR and ERG [3] = target: T1, GR and ERG; remark: listed apart in the source
Procedure: as §1
Proximity ligation assay (PLA), extraction of cells, co-immunoprecipitation and cell migration/invasion assays: These assays were performed exactly as recently reported.

MR and ERG = target: T2, MR and ERG (Homo sapiens, UniProt P08235); assay: PCA, Gluc1-ERG + MR-Gluc2; type: cell-based; details: DEX 1 μM, 60 minutes
T2 construct: expressed in transfected cells; host or cells: HEK-293T
T2 sequence (P08235 1-984): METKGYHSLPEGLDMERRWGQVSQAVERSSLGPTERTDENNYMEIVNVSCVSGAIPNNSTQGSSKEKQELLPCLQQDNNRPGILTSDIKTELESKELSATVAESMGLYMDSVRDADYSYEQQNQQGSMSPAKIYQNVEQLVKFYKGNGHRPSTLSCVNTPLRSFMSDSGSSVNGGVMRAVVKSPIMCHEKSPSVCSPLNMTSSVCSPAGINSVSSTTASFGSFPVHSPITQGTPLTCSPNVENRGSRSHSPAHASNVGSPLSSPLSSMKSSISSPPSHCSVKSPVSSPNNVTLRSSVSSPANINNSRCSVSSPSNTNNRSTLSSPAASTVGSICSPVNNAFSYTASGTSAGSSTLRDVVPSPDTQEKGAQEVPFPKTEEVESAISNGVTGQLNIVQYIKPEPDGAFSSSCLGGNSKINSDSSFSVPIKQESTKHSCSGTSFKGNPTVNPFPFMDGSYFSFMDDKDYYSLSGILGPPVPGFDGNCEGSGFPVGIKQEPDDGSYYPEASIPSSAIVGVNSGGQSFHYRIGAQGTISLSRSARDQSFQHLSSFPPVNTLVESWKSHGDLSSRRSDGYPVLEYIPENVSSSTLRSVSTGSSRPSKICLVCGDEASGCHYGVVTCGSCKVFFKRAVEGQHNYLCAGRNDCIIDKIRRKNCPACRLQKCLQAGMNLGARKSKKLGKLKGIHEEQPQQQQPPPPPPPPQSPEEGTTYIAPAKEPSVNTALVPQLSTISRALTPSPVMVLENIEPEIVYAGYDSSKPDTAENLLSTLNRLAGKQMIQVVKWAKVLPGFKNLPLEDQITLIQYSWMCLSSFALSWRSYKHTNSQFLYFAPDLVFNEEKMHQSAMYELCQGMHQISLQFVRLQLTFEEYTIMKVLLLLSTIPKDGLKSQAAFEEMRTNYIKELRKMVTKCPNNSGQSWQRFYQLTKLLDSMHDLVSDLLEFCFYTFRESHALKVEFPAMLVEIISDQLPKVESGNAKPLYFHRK
T2 sequence (P11308 1-486 isoform P11308-3 partner): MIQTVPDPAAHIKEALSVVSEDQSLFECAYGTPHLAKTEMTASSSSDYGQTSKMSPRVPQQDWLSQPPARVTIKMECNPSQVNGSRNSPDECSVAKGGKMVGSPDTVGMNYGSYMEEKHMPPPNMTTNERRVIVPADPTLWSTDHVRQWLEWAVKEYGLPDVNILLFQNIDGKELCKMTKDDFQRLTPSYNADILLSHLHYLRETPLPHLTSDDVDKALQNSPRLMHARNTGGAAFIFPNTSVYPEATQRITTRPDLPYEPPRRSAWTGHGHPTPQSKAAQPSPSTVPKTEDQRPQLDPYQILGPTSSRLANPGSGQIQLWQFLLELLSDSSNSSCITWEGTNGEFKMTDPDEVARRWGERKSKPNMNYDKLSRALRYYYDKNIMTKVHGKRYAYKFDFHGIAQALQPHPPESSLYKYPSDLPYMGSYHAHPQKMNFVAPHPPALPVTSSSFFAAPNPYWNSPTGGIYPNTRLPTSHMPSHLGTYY
Procedure: Cells were then lysed and luminescence was determined.

A673 tumors = assay: Immunoblotting of A673 tumor extracts; type: in vivo, SCID mice
Procedure: FIGS. 13A-B: A GR antagonist and a cortisol-lowering drug induce markers of cell death in animal models of Ewing's sarcoma. (A) RD-ES tumors presented in FIG. 6A were extracted and analyzed using immunoblotting and the indicated antibodies. Note that tumors from three different mice per group were analyzed. (B) Whole extracts prepared from the tumors presented in FIG. 6D were analyzed using immunoblotting and the indicated antibodies. Note that tumors from three different mice per group were analyzed.
ES animal model studies: All animal experiments were approved by the Weizmann Institute's Animal Care and Use Committee. RD-ES cells and A673 cells (2.5×10^6) were inoculated subcutaneously in the right legs of female SCID mice (6 weeks old). Tumor growth was monitored once every 3 days using a caliper. […] Mice were euthanized when tumor size reached 800-900 mm^3. For metastasis assays, luciferase-labeled TC-71 cells (10^6) were injected orthotopically into the tibia of female SCID mice. Once the primary tumor reached the allowed size limit, we excised the lungs and examined metastases using luciferase bioluminescence imaging.

A673 xenograft = A673 xenograft tumor growth; type: in vivo, SCID mice; details: 25 mg/kg daily
Text: FIGS. 6A-E. A GR antagonist and a cortisol-lowering drug impede growth of human xenograft models of Ewing's sarcoma. (A) RD-ES cells (2×10^6) were implanted subcutaneously in the right flank of SCID mice. […] The means of tumor volumes (+SEM) are shown. […] (B) Shown are representative images of immunofluorescent staining for KI67 in paraffin-embedded sections of tumors from A, using an antibody against KI67. Scale bars, 100 μm. Also shown is the scatter plot depicting quantification of KI67 staining in randomly selected 4 fields of a representative tumor from each group. […] (C and D) A673 cells (2×10^6) were implanted in female SCID mice. […] Each group was daily treated with either vehicle, or Metyrapone (25 mg/kg) and tumorigenic growth was monitored. Actual tumor volumes (±SEM) are presented. Also shown are tumors harvested from each group of animals; **p<0.001. (E) TC-71 cells (10^6) engineered to stably express luciferase were injected into the tibia of female SCID mice (5 weeks old; 7 mice per group). […] The control group was similarly treated with the solvent (0.1% tween 80). When the primary tumor reached 10% of body weight, the lungs were excised and examined for metastasis using luciferase bioluminescence imaging. […] Luminescence was quantified and presented in a bar graph. […] Tumor growth was monitored once every 3 days using a caliper. […]

T1 sequence (P04150 whole entry, the tested form may be a part): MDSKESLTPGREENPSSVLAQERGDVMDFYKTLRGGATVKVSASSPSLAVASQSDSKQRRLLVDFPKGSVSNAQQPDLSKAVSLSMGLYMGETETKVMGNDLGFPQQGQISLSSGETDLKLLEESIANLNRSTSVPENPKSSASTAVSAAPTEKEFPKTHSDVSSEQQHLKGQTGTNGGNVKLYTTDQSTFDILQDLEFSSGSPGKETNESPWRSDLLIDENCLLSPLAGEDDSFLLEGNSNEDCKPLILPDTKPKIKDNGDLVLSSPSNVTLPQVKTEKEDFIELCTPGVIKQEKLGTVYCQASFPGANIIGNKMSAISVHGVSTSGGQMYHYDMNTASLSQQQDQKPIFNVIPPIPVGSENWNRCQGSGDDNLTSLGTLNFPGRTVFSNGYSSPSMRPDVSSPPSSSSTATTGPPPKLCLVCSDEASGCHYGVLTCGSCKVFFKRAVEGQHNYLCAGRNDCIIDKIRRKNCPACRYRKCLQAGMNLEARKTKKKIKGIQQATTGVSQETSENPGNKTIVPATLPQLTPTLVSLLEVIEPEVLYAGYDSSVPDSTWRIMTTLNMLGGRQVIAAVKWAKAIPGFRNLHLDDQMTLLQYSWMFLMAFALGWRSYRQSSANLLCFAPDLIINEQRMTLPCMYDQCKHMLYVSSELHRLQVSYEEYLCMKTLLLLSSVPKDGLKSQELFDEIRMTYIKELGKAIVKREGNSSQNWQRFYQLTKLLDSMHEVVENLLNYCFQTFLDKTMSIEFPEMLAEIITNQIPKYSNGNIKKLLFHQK

| Structure (SMILES) | increase of GRE activity (luciferase) [1] [fold] | luciferase activity (PCA), GR-ERG interaction (GR and ERG [2]) | time of peak of GR-ERG signals after stimulation (PCA) (GR and ERG [2]) | co-immunoprecipitation of GR and ERG (GR and ERG [3]) | interaction between MR and ERG (PCA) (MR and ERG) | γH2AX in tumors (A673 tumors) | tumor growth rates (A673 xenograft) |
| --- | --- | --- | --- | --- | --- | --- | --- |
| C[C@@H]1C[C@H]2[C@@H]3CCC4=CC(=O)C=C[C@]4(C)[C@@]3(F)[C@@H](O)C[C@]2(C)[C@@]1(O)C(=O)CO [DEX, dexamethasone] | 40 | highly significant increases | peaked earlier | enhanced | stimulated strong interactions | – | – |
| CC(C)(C(=O)c1cccnc1)c1cccnc1 [metyrapone] | – | – | – | – | – | elevated | clear and statistically significant decrease |
